Patent publication US20250389737A1, “FACTOR Xa REAGENT” (Instrumentation Laboratory Company, priority 2024, published 2025)
Where a name gives a salt, the structure may show the parent alone.

How the values were obtained:
[1] = molecular target: T1, factor Xa (Homo sapiens, UniProt P00742); assay: chromogenic assay of the effects of guanidine sulfate and alkylated guanidines on factor Xa activity (FIG. 4); assay type: biochemical; conditions: 6 nkat/mL factor Xa in 20 mM HEPES pH 7.5, 1.5 mM substrate S-2732, mAbs/min at 405 nm, dilution series in water
Experimental: In this experiment, the effects of guanidine sulfate and the guanidine derivatives: 1-methylguanidine sulfate, 1,1-dimethylguanidine sulfate, 1,1-diethylguanidine, and N-benzyl, N-methylguanidine sulfate were analyzed using a chromogenic assay. A number of dilutions were prepared in water with guanidine or a guanidine derivative of the type described herein. 40 μL of each of the guanidine or guanidine derivatives were mixed for 20 s to 60 s with 40 μL of 6 nkat/mL factor Xa diluted in 20 mM HEPES, pH 7.5 buffer. After an incubation period of 150 s to 180 s, 100 μL of the factor Xa chromogenic substrate S-2732™ (1.5 mM) was added to each of the guanidine and factor Xa mixtures and each mixture was chromogenically measured at 405 nm mAbs/min after a 20 s delay.

[2] = molecular target: T1, factor Xa; conditions: 6 nkat/mL factor Xa in 20 mM Hepes pH 7.5, 1.5 mM substrate S-2732, 37° C., mAbs/min at 405 nm, concentrations in mM
Experimental: In this experiment, activity of factor Xa in the presence of guanidine sulfate and its derivatives (e.g., 1-methylguanidine sulfate, 1,1-dimethylguanidine sulfate, 1,1-diethylguanidine, N-benzyl, N-methylguanidine sulfate, 1,1,3,3-tetramethylgunidine and 1,1-dimethylbiguanide HCl) was evaluated using a chromogenic assay. In the experiment, each guanidine derivative was dissolved in deionized (DI) water to a final concentration of 100 mM. A number of such guanidine dilutions were prepared. Guanidine derivative levels in the solutions were tested in triplicate at 37° C. as follows: 40 μL (microliters) of each guanidine derivative level was incubated for 20 seconds(s) to 60 s before 40 μL of 6 nkat/mL factor Xa in 20 mM Hepes pH 7.5 buffer was added to the reaction. After an incubation period of 150 s to 180 s, 100 μL of 1.5 mM factor Xa chromogenic substrate S-2732™ was added to the reaction and milli-absorbance per minute (mAbs/min) at 405 nm (nanometers) was measured after a 20 s delay.

[3] = molecular target: T1, factor Xa; assay: chromogenic factor Xa activity in a plasma sample containing dimethylguanidine, 9:1 sample to factor Xa ratio (FIG. 7); assay type: biochemical; conditions: 50 mM vs 25 mM dimethylguanidine, 1.5 mM S-2732, 37° C.
Experimental: In this experiment, 180 μL of a plasma sample containing dimethylguanidine (DMG) and 1.5 mM substrate S-2732™ were mixed with 20 μL of factor Xa (a 9:1 sample to factor Xa ratio). The activity of factor Xa was determined at 37° C. based on chromogenic activity of the substrate. The activity of factor Xa linearly correlates with the factor Xa concentration in the presence of dimethylguanidine. […] Thus, increasing the amount of dimethylguanidine in a sample reduces a rate of the reaction. In some implementations, dimethylguanidine can be added to a reaction at a concentration of up to about 500 mM.

[4] = molecular target: T1, factor Xa; assay: substrate turnover rates at different factor Xa levels, 1,1-dimethylguanidine compared with NaCl (FIG. 6); assay type: biochemical; conditions: 22 mM 1,1-dimethylguanidine vs 33 mM NaCl, 1.5 mM S-2732, 37° C., 405 nm
Experimental: Guanidine derivatives modulate factor Xa enzymatic activity in a reaction, as explained previously, thereby slowing-down the reaction. As a result, greater amounts and/or concentrations of factor Xa can be used in a reaction when a guanidine derivative is incorporated into the reaction. In this experiment, factor Xa levels were tested in a reaction in triplicate at 37° C. as follows: 40 μL of factor Xa was incubated for 20 s to 60 s before 40 μL of 100 mM 1,1-dimethylguanidine or 150 mM NaCl in water was added to the reaction. After an incubation period of 150 s to 180 s, 100 μL of 1.5 mM factor Xa chromogenic substrate S-2732™ was added to the reaction and mAbs/min at 405 nm was measured after a 20 s delay. In FIG. 6, substrate turnover rates (e.g., coloring of the substrate) in the presence of 22 mM 1,1-dimethylguanidine 601 were compared to substrate turnover rates in the presence of 33 mM NaCl 602. As evident from FIG. 6, greater amounts and/or concentrations of factor Xa can be added to the reaction in the presence of 1,1-dimethylguanidine to produce the same substrate turnover rates relative to NaCl. […] Greater amounts and/or concentrations of factor Xa facilitate detection of factor Xa inhibitors or reversal of such inhibitors in an assay, as noted previously.

T1 sequence (P00742 235-488 limits assumed): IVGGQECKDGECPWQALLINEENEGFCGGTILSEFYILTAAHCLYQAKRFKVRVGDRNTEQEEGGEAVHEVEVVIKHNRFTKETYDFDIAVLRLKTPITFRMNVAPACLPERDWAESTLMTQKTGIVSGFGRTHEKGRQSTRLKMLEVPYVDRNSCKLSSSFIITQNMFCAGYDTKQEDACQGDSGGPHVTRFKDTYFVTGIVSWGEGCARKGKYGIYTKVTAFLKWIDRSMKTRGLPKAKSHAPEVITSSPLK
T1 sequence (P00742 41-179 partner limits assumed): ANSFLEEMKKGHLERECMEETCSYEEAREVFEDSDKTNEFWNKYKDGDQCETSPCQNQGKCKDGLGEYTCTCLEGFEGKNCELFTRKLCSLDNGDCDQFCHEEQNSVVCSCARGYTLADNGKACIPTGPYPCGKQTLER

Compound: CCN(CC)C(=N)N.O=S(=O)(O)O [1,1-diethylguanidine sulfate]
- extent of factor Xa inhibition [1]: largest extent of factor Xa inhibition

Compound: CN(C)C(=N)NC(=N)N [1,1-dimethyl-biguanide, reference compound]
- factor Xa activity plotted against guanidine derivative or NaCl concentration [2]: modulate factor Xa dose-dependently, although less than 1-methylated guanidine sulfate

Compound: CN(C)C(=N)N.O=S(=O)(O)O [1,1-dimethylguanidine sulfate]
- extent of factor Xa inhibition [1]: largest extent of factor Xa inhibition

Compound: CN(C)C(=N)N [1,1-dimethylguanidine]
- rate of the factor Xa reaction (chromogenic activity) [3]: slows reaction of the factor Xa in a sample greater than 25 mM of dimethylguanidine
- substrate turnover rates (reaction rate) relative to NaCl [4]: slowed-down

Compound: CNC(=N)N [1-methylguanidine sulfate]
- factor Xa activity plotted against guanidine derivative or NaCl concentration [2]: modulates factor Xa dose-dependently
- extent of factor Xa inhibition [1]: reduced factor Xa inhibition as compared to the factor Xa inhibition of mixtures containing dialkylated guanidine derivatives

Compound: CN(Cc1ccccc1)C(=N)N.O=S(=O)(O)O [N-benzyl N-methylguanidine sulfate]
- extent of factor Xa inhibition [1]: reduced factor Xa inhibition as compared to the factor Xa inhibition of mixtures containing dialkylated guanidine derivatives

Compound: [Cl-].[Na+] [NaCl, reference compound]
- factor Xa activity plotted against guanidine derivative or NaCl concentration [2]: activates factor Xa activity

Compound: N=C(N)N [guanidine sulfate]
- factor Xa activity plotted against guanidine derivative or NaCl concentration [2]: modulate factor Xa dose-dependently, although less than 1-methylated guanidine sulfate
- extent of factor Xa inhibition [1]: least amount of reduction in factor Xa inhibition
